{
  "source": "paper PMC8708985",
  "about": "“Regulation of D-Aspartate Oxidase Gene Expression by Pyruvate Metabolism in the Yeast Cryptococcus humicola” (Microorganisms, 2021)",
  "biological_target": "T1, ChDDO (Vanrija humicola, UniProt Q75WF1)",
  "T1 construct": "gene DDO; native enzyme in crude extract of D-Asp-induced strain UJ1 cells; FAD added",
  "T1 sequence (Q75WF1 whole entry)": "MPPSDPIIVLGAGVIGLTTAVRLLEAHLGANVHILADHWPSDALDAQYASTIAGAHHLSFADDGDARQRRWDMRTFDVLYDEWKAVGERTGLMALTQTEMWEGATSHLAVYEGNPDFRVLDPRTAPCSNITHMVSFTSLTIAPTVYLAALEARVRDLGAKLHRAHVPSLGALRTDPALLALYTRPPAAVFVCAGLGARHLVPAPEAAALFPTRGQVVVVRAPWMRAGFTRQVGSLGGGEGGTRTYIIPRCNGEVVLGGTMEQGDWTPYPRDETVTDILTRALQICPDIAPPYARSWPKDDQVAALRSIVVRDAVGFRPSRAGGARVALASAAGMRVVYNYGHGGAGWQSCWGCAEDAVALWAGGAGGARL",
  "assay": "HRP-coupled phenol/4-aminoantipyrine H2O2 assay at […] nm, crude extract",
  "assay_type": "biochemical",
  "details": "20 mM D-Asp; 20 uM FAD; 50 mM potassium phosphate pH 8.0",
  "data": [
    {"smiles": "N[C@H](CC(=O)O)C(=O)O", "note": "[D-Asp]", "values": [
      {"measurement": "HRP-coupled phenol/4-aminoantipyrine H2O2 assay at 505 nm, crude extract", "result": "the enzyme activity in the crude extract of the ΔChpyc1 strain induced by D-Asp"}
    ]}
  ]
}
